How the values were obtained:
[1] = target: Bifunctional peptidase and (3S)-lysyl hydroxylase JMJD7 (Homo sapiens, UniProt P0C870); test: Inhibition of N-terminal His-tagged human JMJD7 (1 to 316 residues) expressed in Escherichia coli BL21 (DE3) luciferase based succinate-gloTM JmjC demethylase/hydroxylase assay
[2] = system: HeLa; test: Cytotoxicity against human HeLa cells assessed as growth inhibition measured after 72 hrs by MTT assay
[3] = system: SK-BR-3; test: Cytotoxicity against human SK-BR-3 cells assessed as growth inhibition measured after 72 hrs by MTT assay; settings: SK-BR-3, 72 h
[4] = system: BJ; test: Cytotoxicity against human BJ cells assessed as growth inhibition measured after 72 hrs by MTT assay
[5] = system: SH-SY5Y; test: Cytotoxicity against human SH-SY5Y cells assessed as growth inhibition measured after 72 hrs by MTT assay
[6] = system: Jurkat; test: Cytotoxicity against human Jurkat cells assessed as growth inhibition measured after 72 hrs by MTT assay
[7] = system: T47D; test: Cytotoxicity against human T47D cells assessed as growth inhibition measured after 72 hrs by MTT assay

Chain of Bifunctional peptidase and (3S)-lysyl hydroxylase JMJD7 (P0C870 whole entry, the tested form may be a part): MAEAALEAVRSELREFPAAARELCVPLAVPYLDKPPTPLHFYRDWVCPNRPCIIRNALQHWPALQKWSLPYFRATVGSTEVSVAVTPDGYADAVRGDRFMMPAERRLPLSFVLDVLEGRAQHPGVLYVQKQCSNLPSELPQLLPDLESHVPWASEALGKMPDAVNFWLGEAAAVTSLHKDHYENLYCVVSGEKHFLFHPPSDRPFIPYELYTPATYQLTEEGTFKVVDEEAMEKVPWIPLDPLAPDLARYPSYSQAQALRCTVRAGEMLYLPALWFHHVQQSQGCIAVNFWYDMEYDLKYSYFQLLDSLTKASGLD

COc1ccc(CCC(=O)Nc2ccccc2C(=O)O)cc1OC
IC50 [1]: 33.2 µM

CCCNC(=O)c1ccc(-c2nc3ccccc3s2)s1
IC50 [1]: 11 µM

Oc1c(C(Nc2ccccn2)c2ccccc2)ccc2cccnc12 (stereo not given)
IC50 [1]: 31.6 µM

O=C(Oc1ccc([N+](=O)[O-])c2cccnc12)c1ccc(Cl)cc1Cl
IC50 [2]: 16.1 µM
IC50 [3]: 13.3 µM
IC50 [4]: > 100 µM
IC50 [5]: > 100 µM
IC50 [6]: 15 µM
IC50 [7]: 9.4 µM

COc1cccc(-c2ccc(NC(=O)C3=C(C(=O)O)CCC3)c(F)c2)c1 [VIDOFLUDIMUS]
IC50 [1]: 7.16 µM

Reference: ChEMBL document CHEMBL4819143, “Discovery of JMJD7 inhibitors with the aid of virtual screening and bioactivity evaluation” (Bioorg Med Chem Lett, 2021)
